The results in this text go back to article PMC9378504 (Journal of medicinal chemistry, 2022).

The target in test [1] is T1, NSD2 (Homo sapiens, UniProt O96028).
T1 sequence (O96028 1-1365): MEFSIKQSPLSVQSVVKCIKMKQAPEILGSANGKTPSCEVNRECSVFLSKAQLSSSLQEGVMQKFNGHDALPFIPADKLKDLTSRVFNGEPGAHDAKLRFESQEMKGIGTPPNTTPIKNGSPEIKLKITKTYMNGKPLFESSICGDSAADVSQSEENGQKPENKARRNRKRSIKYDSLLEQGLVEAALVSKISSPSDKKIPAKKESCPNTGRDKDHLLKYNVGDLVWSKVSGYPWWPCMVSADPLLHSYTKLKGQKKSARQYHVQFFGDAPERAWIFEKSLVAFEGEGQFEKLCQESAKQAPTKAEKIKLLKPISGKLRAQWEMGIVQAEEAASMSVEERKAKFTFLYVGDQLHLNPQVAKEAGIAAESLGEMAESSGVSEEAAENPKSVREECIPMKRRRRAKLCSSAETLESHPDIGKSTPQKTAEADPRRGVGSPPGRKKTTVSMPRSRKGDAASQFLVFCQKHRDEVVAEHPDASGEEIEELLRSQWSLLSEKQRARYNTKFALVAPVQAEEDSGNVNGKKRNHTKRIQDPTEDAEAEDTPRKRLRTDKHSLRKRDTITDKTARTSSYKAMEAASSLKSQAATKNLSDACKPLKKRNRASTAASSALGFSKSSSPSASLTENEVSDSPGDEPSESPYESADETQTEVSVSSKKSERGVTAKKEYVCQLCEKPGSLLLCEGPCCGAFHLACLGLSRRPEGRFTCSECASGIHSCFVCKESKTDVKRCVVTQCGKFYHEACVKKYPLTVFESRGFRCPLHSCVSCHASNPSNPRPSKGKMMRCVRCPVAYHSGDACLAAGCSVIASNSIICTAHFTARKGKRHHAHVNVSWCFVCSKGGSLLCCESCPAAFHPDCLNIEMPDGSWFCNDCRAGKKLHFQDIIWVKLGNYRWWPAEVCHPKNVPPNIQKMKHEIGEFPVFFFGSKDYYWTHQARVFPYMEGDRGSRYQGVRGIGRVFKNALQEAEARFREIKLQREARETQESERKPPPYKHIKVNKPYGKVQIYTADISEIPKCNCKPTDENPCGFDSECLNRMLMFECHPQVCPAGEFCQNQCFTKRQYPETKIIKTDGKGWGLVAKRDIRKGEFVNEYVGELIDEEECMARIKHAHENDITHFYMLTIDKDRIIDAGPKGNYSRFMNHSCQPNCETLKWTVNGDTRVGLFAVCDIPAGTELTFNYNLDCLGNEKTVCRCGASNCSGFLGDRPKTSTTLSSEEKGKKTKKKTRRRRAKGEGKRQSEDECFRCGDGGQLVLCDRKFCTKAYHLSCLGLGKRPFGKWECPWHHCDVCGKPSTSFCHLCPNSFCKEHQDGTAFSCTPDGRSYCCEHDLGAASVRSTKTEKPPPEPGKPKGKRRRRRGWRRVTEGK
Description: Western blotting of NSD2 protein level in KMS11 cells. Format: cell-based. For orientation: A western blot detects proteins with antibodies after separation by electrophoresis.

Test [2] relates to GSPT1. Kind of test: Western blotting of GSPT1 protein level in 293FT cells. The class given is cell-based. The conditions noted are these: SI Figure S1A.
Test [3] concerns the target T1, NSD2. Kind of test: Western blotting of NSD2 protein level in 293FT cells. The class given is cell-based. The following applies: 293FT cells; for NSD2 degradation: SI Figure S1A.
Test [4] concerns the target T2, IKZF3 (Homo sapiens, UniProt Q96SW2+Q9UKT9). Kind of test: Western blotting of IKZF3 protein level in 293FT cells. The class given is cell-based. The following applies: 293FT cells, SI Figure S1A.
Test [5] deals with T1, NSD2. Kind of test: Western blotting of NSD2 protein level in H929 cells. Format: cell-based.
A further test has as its system KMS11 cells. Description: Cell growth inhibition assay in KMS11 cells. The conditions noted are these: 2.5 μM, 8 days. The class given is cell-based, Human.
The target in test [6] is T3, IKZF1 (Homo sapiens, UniProt Q13422+Q96SW2). Description: Western blotting of IKZF1 protein level in H929 cells. Format: cell-based. The following applies: 2.5 μM, 72 h.
The target in test [7] is T2, IKZF3. Kind of test: Western blotting of IKZF3 protein level in KMS11 cells. Format: cell-based. The conditions noted are these: 2.5 μM, 72 h.
In test [8] the test system is GSPT1. Description: Western blotting of GSPT1 protein level in H929 cells. The class given is cell-based, Human. The following applies: 2.5 μM, 72 h.
A further test has as its system H929 cells. Kind of test: Cell growth inhibition assay in H929 cells. The conditions noted are these: 2.5 μM, 8 days. Format: cell-based, Human.
The target in test [9] is T2, IKZF3. Description: Western blotting of IKZF3 protein level in H929 cells. The class given is cell-based. The conditions noted are these: 2.5 μM, 72 h.
Test [10] has as its target T3, IKZF1. Description: Western blotting of IKZF1 protein level in KMS11 cells. Format: cell-based. The following applies: 2.5 μM, 72 h.
Test [11] relates to GSPT1. Kind of test: Western blotting of GSPT1 protein level in KMS11 cells. Format: cell-based, Human. The conditions noted are these: 2.5 μM, 72 h.
The next test concerns the target T4, NSD2-PWWP1 domain (Homo sapiens, UniProt O96028).
T4 sequence (O96028 208-369): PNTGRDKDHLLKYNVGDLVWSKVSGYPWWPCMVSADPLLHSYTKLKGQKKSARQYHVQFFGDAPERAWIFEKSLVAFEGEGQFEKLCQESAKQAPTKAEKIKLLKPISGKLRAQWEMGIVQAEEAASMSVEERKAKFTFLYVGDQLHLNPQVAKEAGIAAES
Description: Isothermal titration calorimetry. The conditions noted are these: ITC, inverse titration, 50 mM Tris-HCl pH 6.8, 25 °C; mean ± SD from two independent experiments. (In general: Isothermal titration calorimetry measures the heat released or taken up as one component is titrated into another.)

T2 sequence (Q9UKT9 whole entry): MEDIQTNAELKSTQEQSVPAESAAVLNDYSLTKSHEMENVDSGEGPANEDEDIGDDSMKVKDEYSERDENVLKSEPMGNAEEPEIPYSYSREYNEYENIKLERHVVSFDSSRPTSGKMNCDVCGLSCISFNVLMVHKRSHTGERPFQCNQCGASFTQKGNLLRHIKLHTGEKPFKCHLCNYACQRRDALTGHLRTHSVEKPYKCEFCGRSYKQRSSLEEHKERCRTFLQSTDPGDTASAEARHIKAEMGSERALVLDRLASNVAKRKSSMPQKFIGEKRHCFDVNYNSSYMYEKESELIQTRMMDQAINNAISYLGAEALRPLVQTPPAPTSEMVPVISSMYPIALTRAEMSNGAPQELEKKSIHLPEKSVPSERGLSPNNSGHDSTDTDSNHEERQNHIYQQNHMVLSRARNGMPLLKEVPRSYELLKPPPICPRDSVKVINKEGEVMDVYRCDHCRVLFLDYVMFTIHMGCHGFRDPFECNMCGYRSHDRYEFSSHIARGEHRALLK
T2 sequence (Q96SW2 whole entry): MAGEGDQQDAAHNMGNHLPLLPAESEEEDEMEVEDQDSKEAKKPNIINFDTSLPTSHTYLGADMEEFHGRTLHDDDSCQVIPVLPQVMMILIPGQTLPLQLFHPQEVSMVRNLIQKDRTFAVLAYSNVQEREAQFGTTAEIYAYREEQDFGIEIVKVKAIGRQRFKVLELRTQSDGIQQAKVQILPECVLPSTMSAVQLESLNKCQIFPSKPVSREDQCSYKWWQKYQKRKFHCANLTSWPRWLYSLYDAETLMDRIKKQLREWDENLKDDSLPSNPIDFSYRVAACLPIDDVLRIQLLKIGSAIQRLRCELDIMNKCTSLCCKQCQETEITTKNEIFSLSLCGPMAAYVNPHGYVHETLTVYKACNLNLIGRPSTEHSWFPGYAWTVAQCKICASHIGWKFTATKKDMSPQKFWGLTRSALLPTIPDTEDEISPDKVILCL
T2 sequence (Q16531 whole entry partner): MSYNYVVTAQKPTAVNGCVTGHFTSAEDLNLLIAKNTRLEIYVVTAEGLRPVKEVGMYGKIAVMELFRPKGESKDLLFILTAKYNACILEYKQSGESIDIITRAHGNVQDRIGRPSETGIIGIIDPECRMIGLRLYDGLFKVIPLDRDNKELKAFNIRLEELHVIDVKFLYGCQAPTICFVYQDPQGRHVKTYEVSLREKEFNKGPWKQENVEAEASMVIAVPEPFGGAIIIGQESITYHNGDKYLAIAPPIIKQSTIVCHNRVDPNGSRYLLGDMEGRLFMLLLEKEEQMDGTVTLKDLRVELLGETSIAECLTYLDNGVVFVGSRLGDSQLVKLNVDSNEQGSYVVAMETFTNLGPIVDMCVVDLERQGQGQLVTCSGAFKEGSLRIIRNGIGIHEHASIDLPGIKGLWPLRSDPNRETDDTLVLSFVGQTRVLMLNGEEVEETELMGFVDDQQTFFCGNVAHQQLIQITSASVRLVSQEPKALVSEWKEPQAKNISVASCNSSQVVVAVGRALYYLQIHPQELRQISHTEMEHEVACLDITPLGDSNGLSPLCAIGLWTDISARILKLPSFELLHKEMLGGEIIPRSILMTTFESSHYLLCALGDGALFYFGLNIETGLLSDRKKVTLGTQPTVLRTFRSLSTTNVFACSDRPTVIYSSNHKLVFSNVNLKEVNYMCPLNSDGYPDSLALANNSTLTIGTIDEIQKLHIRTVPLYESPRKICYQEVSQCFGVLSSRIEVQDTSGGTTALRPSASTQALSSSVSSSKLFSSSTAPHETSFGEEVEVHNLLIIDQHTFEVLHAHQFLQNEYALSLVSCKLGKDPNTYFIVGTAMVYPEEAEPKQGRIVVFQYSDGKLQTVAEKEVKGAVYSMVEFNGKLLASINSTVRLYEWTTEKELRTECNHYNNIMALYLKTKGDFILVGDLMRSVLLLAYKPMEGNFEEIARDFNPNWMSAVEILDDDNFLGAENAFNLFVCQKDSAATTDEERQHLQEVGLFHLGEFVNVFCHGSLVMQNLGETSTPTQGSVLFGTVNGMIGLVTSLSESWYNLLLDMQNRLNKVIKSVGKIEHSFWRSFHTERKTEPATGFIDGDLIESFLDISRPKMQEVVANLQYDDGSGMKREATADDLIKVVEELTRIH
T3 sequence (Q13422 whole entry): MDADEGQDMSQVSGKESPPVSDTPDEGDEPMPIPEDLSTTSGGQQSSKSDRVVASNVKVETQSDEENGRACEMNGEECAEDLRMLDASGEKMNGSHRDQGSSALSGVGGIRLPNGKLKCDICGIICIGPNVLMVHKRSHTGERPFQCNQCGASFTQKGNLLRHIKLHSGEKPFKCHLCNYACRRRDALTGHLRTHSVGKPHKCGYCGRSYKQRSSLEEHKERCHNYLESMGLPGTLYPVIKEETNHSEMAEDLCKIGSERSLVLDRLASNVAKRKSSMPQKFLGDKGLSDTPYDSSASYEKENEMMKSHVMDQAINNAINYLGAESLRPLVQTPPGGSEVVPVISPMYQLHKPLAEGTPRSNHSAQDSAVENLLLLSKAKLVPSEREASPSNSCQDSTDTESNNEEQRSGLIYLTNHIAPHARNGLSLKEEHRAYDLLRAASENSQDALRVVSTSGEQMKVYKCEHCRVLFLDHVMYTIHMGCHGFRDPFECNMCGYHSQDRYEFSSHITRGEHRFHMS
T3 sequence (Q96SW2 whole entry): as the sequence (Q96SW2 whole entry) above
T3 sequence (Q16531 whole entry partner): as the sequence (Q16531 whole entry partner) above

As to `Cc1ncsc1-c1ccc(CNC(=O)[C@@H]2C[C@@H](O)CN2C(=O)[C@@H](NC(=O)CCOCCOCCNC(=O)c2ccc(NC(=O)c3ccc(CN(C(=O)c4ccc5c(c4)OCC(=O)N5)C4CC4)cc3)cc2)C(C)(C)C)cc1` [Compound 1, N-Cyclopropyl-N-(4-((4-((2-(2-(3-(((S)-1-((2S,4R)-4-hydroxy-2-((4-(4-methylthiazol-5-yl)benzyl)carbamoyl)pyrrolidin-1-yl)-3,3-dimethyl-1-oxobutan-2-yl)amino)-3-oxopropoxy)ethoxy)ethyl)-carbamoyl)phenyl)carbamoyl)benzyl)-3-oxo-3,4-dihydro-2H-benzo[b][1,4]oxazine-7-carboxamide], the NSD2 degradation result is “ineffective in degrading NSD2” on NSD2 [1] (SI Figure S1B); “confirmed the NSD2 degradation effect” at NSD2 [3] (2.5 μM); “hook affect” on NSD2 [3] (10 μM); “did not induce NSD2 degradation” on NSD2 [3] (0.1 and 0.5 μM); “ineffective in degrading NSD2” at NSD2 [5] (SI Figure S1B). Further, the GSPT1 degradation entry with GSPT1 [2] was “did not degrade GSPT1 or IKZF3”. Besides, the NSD2 protein level entry at NSD2 [3] (2.5 and 10 μM, 48 h, Figure 2) is on record as “clearly reduced the NSD2 protein level with a slight hook effect at 10μM”. For the same compound, the IKZF3 degradation entry at IKZF3 [4] is listed as “did not degrade GSPT1 or IKZF3”.
For the compound `CN1C(=O)CCC(N2C(=O)c3cccc(NCC(=O)NCCCOc4ccc(NC(=O)c5ccc(CN(C(=O)c6ccc7c(c6)OCC(=O)N7)C6CC6)cc5)nc4)c3C2=O)C1=O` (stereo not shown) [Compound 17, N-Cydopropyl-N-(4-((5-(3-(2-((2-(1-methyl-2,6-dioxopiperidin-3-yl)-1,3-dioxoisoindolin-4-yl)amino)acetamido)propoxy)pyridin-2-yl)carbamoyl)benzyl)-3-oxo-3,4-dihydro-2H-benzo[b][1,4]oxazine-7-carboxamide], the NSD2 degradation entry is given as “did not induce obvious NSD2 degradation” on NSD2 [1] (2.5 μM, 72 h) and “did not induce obvious NSD2 degradation” on NSD2 [5] (2.5 μM, 72 h). Further, the Cell growth inhibition entry with KMS11 cells and in the test with H929 cells was “showed little effect on cell growth inhibition” each time. The IKZF1 protein level entry at IKZF1 [6] and on IKZF1 [10] was “did not display any degradation effect” in each case. Besides, the IKZF3 protein level result at IKZF3 [7] and at IKZF3 [9] was “did not display any degradation effect” in each case. The GSPT1 degradation entry with GSPT1 [8] and in the test with GSPT1 [11] was “did not degrade GSPT1” in each case.
`CC(C)N(Cc1ccc(C(=O)Nc2ccc(OCCCNC(=O)CNc3cccc4c3C(=O)N(C3CCC(=O)NC3=O)C4=O)cn2)cc1)C(=O)c1ccc2c(c1)OCC(=O)N2` (stereo not shown) [Compound 18, N-(4-((5-(3-(2-((2-(2,6-Dioxopiperidin-3-yl)-1,3-dioxoisoindolin-4-yl)amino)acetamido)propoxy)pyridin-2-yl)carbamoyl)benzyl)-N-isopropyl-3-oxo-3,4-dihydro-2H-benzo[b][1,4]oxazine-7-carboxamide]: the NSD2 degradation entry is given as “did not induce obvious NSD2 degradation” on NSD2 [1] (2.5 μM, 72 h) and “did not induce obvious NSD2 degradation” at NSD2 [5] (2.5 μM, 72 h). The Cell growth inhibition result with KMS11 cells and with H929 cells was “displayed some growth inhibition” in each case. Moreover, the IKZF1 protein level entry at IKZF1 [6] and at IKZF1 [10] was “clearly reduced the IKZF1 protein level” throughout. In addition, the GSPT1 degradation result in the test on GSPT1 [8] and in the test with GSPT1 [11] was “did not degrade GSPT1” each time. Moreover, at NSD2-PWWP1 domain, the Kd result is recorded as “did not show any appreciable binding”.
For the compound `O=C1COc2cc(C(=O)N(Cc3ccc(C(=O)Nc4ccncn4)cc3)C3CC3)ccc2N1` [UNC6934, reference compound], the IKZF1 protein level entry at IKZF1 [6] and on IKZF1 [10] was “did not display any degradation effect” throughout. Besides, the IKZF3 protein level entry on IKZF3 [7] and on IKZF3 [9] was “did not display any degradation effect” each time.
